Reference: PubChem BioAssay (NCI)
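Test compounds were applied to cells in 96-well plates for 48 hours at 5 doses. The concentration for full growth arrest is given as TGI.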

Columns and labels:
Experiment in all cases: inhibition of tumour cell growth, NCI panel, 48 h
[1] = test system: UACC-257 melanoma
[2] = test system: HS 578T breast
[3] = test system: DU-145 prostate
[4] = test system: M19-MEL melanoma
[5] = test system: DMS 273 small cell lung
[6] = test system: LXFL 529 NSCLC
[7] = test system: DMS 114 small cell lung
[8] = test system: KM20L2 colon
[9] = test system: XF 498 CNS
[10] = test system: DLD-1 colon
[11] = test system: SNB-78 CNS

| SMILES | TGI [1] | TGI [2] | TGI [3] | also measured |
| --- | --- | --- | --- | --- |
| Cc1cc2c(cc1C)C(=O)C1(C2)Cc2cc3c(cc2C1=O)CCC3 (centres undefined) | > 100 µM | > 100 µM | > 100 µM |  |
| CCCCCCCCP(=O)(O)OP(=O)(O)OCC1OC(n2ccc(N)nc2=O)C(O)C1O (centres undefined) | > 100 µM | > 100 µM |  |  |
| CC1(C)OC(=O)C(C#N)=C1C[n+]1ccccc1 | > 10 µM | > 10 µM | > 10 µM |  |
| COC(=O)C(Cc1c[nH]c2ccccc12)NP(=O)(O)OCC1OC(n2cc(Br)c(=O)[nH]c2=O)CC1O (centres undefined) | > 100 µM | > 100 µM | > 100 µM |  |
| O=C1CC(=O)NC(=NN2C(=O)CSC2C(=O)c2ccco2)N1 (centres undefined) | > 100 µM | > 100 µM | > 100 µM |  |
| Cc1cc(S(=O)(=O)Nc2nncn2-c2ccc(Cl)cc2)c(S)cc1Cl | > 10 µM | > 10 µM | > 10 µM |  |
| O=C(O)c1c2c(cc3c1CC1(Cc4cc5c(cc4C1=O)CCC5)C3)CCC2 (centres undefined) | > 100 µM | > 100 µM | > 100 µM |  |
| NCCCNOCCCN |  |  | > 100 µM |  |
| CCOC(=O)C(=CNC(=S)N=Nc1c(O)[nH]c2ccccc12)C(=O)OCC | > 100 µM | > 100 µM | > 100 µM |  |
| COC(=O)c1c(C)cccc1C1CN=NC12Cc1cc(C)cc(C)c1C2=O (centres undefined) | 80.3 µM | > 100 µM | > 100 µM |  |
| CCOC(=O)[C@@]1(C)CC(O)C(=O)N1C (some centres undefined) | > 100 µM | > 100 µM | > 100 µM |  |
| CCCCSC1=N/C(=C\c2ccc(N(C)C)cc2)C(=O)N1 | 56.7 µM | 92.1 µM | > 100 µM |  |
| CCCCc1ccc(Nc2nc(Cl)c3ccn(C4CC(Oc5ccc(C)cc5)C(COc5ccc(C)cc5)O4)c3n2)cc1 (centres undefined) | 31.5 µM | > 100 µM | > 46.4 µM |  |
| Cc1cc(Nc2ccc(NS(C)(=O)=O)cc2)c2c(ccc3nccc32)[nH]1 | 34.7 µM | > 100 µM | 40.1 µM |  |
| O[C@@H]1CCC[C@@H]2NC[C@@H](c3ccc4c(c3)OCO4)[C@H]12 | > 100 µM | > 100 µM | > 100 µM |  |
| Cc1ccc(S(=O)(=O)N/N=C2\CC3CC4CCC2C4C3)cc1 (centres undefined) | > 100 µM | > 100 µM | > 100 µM |  |
| CCN(CC)c1ccc(/C=C2\CCc3ccc([N+](=O)[O-])cc3C2=O)cc1 |  | > 100 µM | > 100 µM |  |
| COc1c(Br)cc2ccccc2c1-c1c(OC)c(Br)cc2ccccc12 | > 100 µM | > 100 µM | > 100 µM |  |
| O=c1[nH]nc(Nc2ccccc2)c2nnn(C3CCCCC3)c12 | > 100 µM |  | > 100 µM |  |
| Cc1c(C)c(C)c(-n2c(=O)n(C)c(=O)n2-c2cc(C(C)(C)C)cc(C(C)(C)C)c2O)c(C)c1C | 23.9 µM | 31.9 µM | 25.9 µM |  |

| SMILES | TGI [1] | TGI [2] | TGI [3] | also measured |
| --- | --- | --- | --- | --- |
| O=C(CN1CCCCC1)Nc1ccc2c(c1)C1Oc3ccccc3CC1CO2 (centres undefined) | 36 µM |  | > 100 µM |  |
| C=CCN1/C(=C2\SC(=S)N(c3ccc(C)cc3)C2=O)Sc2c1ncn(C)c2=O | > 100 µM |  |  | TGI [4]: > 100 µM; TGI [5]: > 100 µM; TGI [6]: > 100 µM; TGI [7]: > 100 µM; TGI [8]: > 100 µM; TGI [9]: > 100 µM; TGI [10]: > 100 µM; TGI [11]: > 100 µM |
| COC(=O)C(=O)C(C(=O)C(=O)Nc1ccccc1OC)c1nc2ccc([N+](=O)[O-])cc2[nH]c1=O (centres undefined) | > 100 µM | > 100 µM |  |  |
| COc1ccc(NC(C(N)=O)c2cc3cc(Br)ccc3nc2Cl)cc1 (centres undefined) | > 100 µM | > 100 µM | > 100 µM |  |
| Cc1[nH]c2ccccc2c1/C=N/NC(=O)c1cccc(I)c1 | 54.5 µM | 89.8 µM | 92.5 µM |  |
| CC1(C)C2CCC1C(=O)[C@@]1(C=CC(=O)CC1)C2 (some centres undefined) | > 100 µM | > 100 µM | > 100 µM |  |
| COC(=O)[C@]1(c2cc3ccccc3[nH]2)CC2CN(C(=O)OCc3ccccc3)C1CC2=O (some centres undefined) | > 100 µM | 62.4 µM | > 100 µM |  |
| O=C(c1cccnc1)N1N=C(c2ccccc2)CC1(O)c1cc(F)c(Cl)cc1Cl (centres undefined) | 39.7 µM | 79.5 µM | > 100 µM |  |
| N#Cc1cc(Sc2ccc(N)c(C#N)c2)ccc1N | > 100 µM | 39.3 µM | 89.6 µM |  |
| O=C(N/N=C\c1cccc2ccccc12)Nc1cccc2ccccc12 | > 100 µM | > 100 µM | > 100 µM |  |
| CCOC(=O)/C=C(\C(=O)OCC)n1cc(Cl)c(=O)n(CC(=O)OCC)c1=O | 10.2 µM | > 100 µM | 31.1 µM |  |
| NC(=O)CC(N)C(=O)NC(Cc1ccccc1)C(=O)NC(Cc1ccccc1)NC(=O)C(Cc1c[nH]c2ccccc12)C(=O)O (centres undefined) | > 100 µM | > 100 µM | > 100 µM |  |
| C=CC(=O)N1C/C(=C\c2ccc([N+](=O)[O-])cc2)C(=O)/C(=C/c2ccc([N+](=O)[O-])cc2)C1 | 3.25 µM | 0.804 µM | 2.36 µM |  |
| CC(=O)O[C@H]1C[C@@H](OC(C)=O)[C@@](C)(O)[C@@H]2[C@@H](OC(C)=O)[C@@]3(O)[C@H](/C=C(/CO)[C@H]4O[C@H]4[C@@H](OC(C)=O)[C@@]12C)OC(=O)[C@@H]3C | > 25 µM | > 25 µM | 12 µM |  |
| O=[N+]([O-])c1cc2ccc(N(CCO)CCO)nc2nc1N(CCO)CCO | > 100 µM | > 100 µM | > 100 µM |  |
| CCOC(=O)CCN1C(=O)C(=O)N(c2ccc(OC)cc2)C1=S | > 100 µM | > 100 µM | > 100 µM |  |
| Nn1c(=O)[nH]c2ncn(Cc3ccccc3)c2c1=O | > 100 µM | > 100 µM | > 100 µM |  |
| CC1SC2(CCCCC2)N(NC(=O)CSc2nc3ccc(Cl)cc3c(=O)n2-c2ccccc2)C1=O (centres undefined) | 55.5 µM |  | 85.8 µM |  |
| Cc1c(Cl)cccc1N=NC(=O)NNc1cccc(Cl)c1C | 42.1 µM |  | 28.3 µM |  |
